Results published in PMC6389896 (Communications Biology, 2019).
Several values for one entry are separate records, joined by “and”; a condition that tells them apart may be missing. Identical values can stand only once.

Tests used:
[1] = human or primate CSF, mammalian hippocampus and amygdala; cited from earlier work
[2] = Oxytocin in CSF from the cisterna magna after administration, EIA; type: in vivo, mouse; details: for CSF OT: individual animals, listed as OT
Procedure: (§1) CSF was collected according to the protocol for sampling CSF from mice without detectable plasma contamination[77],[78]. Under ketamine anaesthesia (100 mg/kg intraperitoneally), the occipital skull was exposed, and the dura mater of the cisterna magna appeared as a glistening and clear reverse triangle through which the medulla oblongata, a major blood vessel (arteria dorsalis spinalis), and CSF space were visible. A capillary tube was inserted into the cisterna magna through the dura mater, blood-free CSF samples were collected with a 32G needle and immediately frozen with dry ice prior to storage at −80 °C. After CSF collections, blood samples were obtained by cardiac puncture from the mice under continuous ketamine anaesthesia.
(§2) The CSF samples (5 μl) were thawed and diluted 1:20 in assay buffer. CSF samples were assayed without protein extraction due to the low protein concentration in the CSF. […] The inter-assay and intra-assay coefficients of variation were less than 15%.

[3] = Microperfusion of the amygdala, oxytocin in microperfusates; type: in vivo, mouse; details: intranasal 20 ng, 0 min = 100, individual animals, listed as OT
Source text: For microperfusion probe implantation, the male mice were with a subcutaneous injections of ketamine. The heads of anesthetised mice were fixed in a stereotactic frame (Narishige, Tokyo, Japan) and a 1 mm hole was drilled in the skull. The intact dura intact was then punctured to create defined opening of the meninges. Using the stereotactic frame, a healing dummy was slowly inserted into the three brain positions. The probe was fixed to the skull by using two anchor screws and biocompatible dental cement. All surgical procedures were completed within 30 min. A healing dummy was used to provide mechanical stability during the implantation and the healing period of 2 weeks. The microperfusion probe (a 4-mm length of the coaxial tube, 2.5 mm in diameter) consisting of a 20 G fluorinated ethylene propylene guide cannula was replaced before sampling with an inflow/outflow tubing on the day of the experiments. This tubing was connected to two glass Hamilton microsyringes placed in syringe pumps (Eicom, Osaka, Japan). Microperfusate was pumped into the probe at a flow rate of 2 µl/min, and the samples were withdrawn at the same flow rate. Sampling was conducted for 2 h. Both microprobes were perfused without sampling for 60 min before the first 30-min microperfusates from the amygdala, PVN, and prefrontal cortex were collected. The microperfusates were mixed under sterile conditions and consisted of 154 mM NaCl, 2.2 mM CaCl2, 5.6 mM KCl, 2.3 mM NaHCO3, and 0.15% BSA (pH 7.4)[80]. Beginning immediately after the nasal application, 4 additional microperfusates were taken at 30-min intervals. After the termination of the experiments, the brains were removed and snap-frozen to obtain 40-μm cryo-cut stained brain slices later for the histological verification of the perfusion site.

[4] = Plasma oxytocin after subcutaneous injection, EIA; type: in vivo, mouse; details: WT and Ager-/- male mice
Procedure: as §1, §2
Supplementary Figure 5. Transportation of peripherally administrated oxytocin (OT) or PBS into […]
Blood was recovered from the cardiac ventricles of the wild type (WT, RAGE+/+) and Ager-/- (RAGE-/-) male mice (n = 3–16). Oxytocin was measured in the extracted samples. […]
concentrations were measured with enzyme immunosorbent assay (EIA) or LC-MS/MS. […]

[5] = tested on: monkey brain capillary endothelial cells; assay: In vitro blood-brain barrier (BBB) model (MBT-24H), transport between luminal and abluminal chambers, control or RAGE shRNA knockdown; details: individual wells, listed as OT; for OT in lower (abluminal, brain) chamber: blood-to-brain, 3 h; for OT in luminal chamber: brain-to-blood, n = 3
Procedure: EC, monkey brain capillary endothelial cells; Peri, rat brain pericytes; Astro, rat astrocytes. […] The endothelial cells used in the upper chamber in a were treated with RAGE shRNA (knockdown, KD) or control (C or CNT) vectors to assess the effects of RAGE knockdown. […] Values are mean ± SEM
For the in vitro BBB model (MBT-24H, PharmaCo-Cell Co., Nagasaki, Japan), rat brain pericytes (1.5 × 10^4 cells/cm^2) and rat astrocytes (1.5 × 10^4 cells/cm^2) were seeded on the bottom of the collagen-coated polyester membranes of Transwell inserts (Corning Life Sciences, MA, USA). After 16 h the cells firmly adherent, monkey brain vascular endothelial cells (1.5 × 10^5 cells/cm^2) were then seeded on the upper side of the inserts in 24-well culture plates. The in vitro BBB models were established within 4 days of seeding the cells according to the manufacturer’s instructions. Trans-endothelial electrical resistance (TEER), which primarily reflects the flux of sodium ions through the cell layers in the culture conditions, was measured with an epithelial-volt-ohm metre and an Endohm-6 chamber electrodes (World Precision Instruments, Sarasota, FL, USA). The TEERs of the coated, cell-free filters were subtracted from the measured TEER values of the models and shown as Ω cm^2. The apparent permeability constants (Papp) between luminal and abluminal chambers were calculated from the distribution ratios. Endothelial expression was silenced using RAGE shRNA and the pSilencer 3.0-H1 vector (Ambion, Austin, TX, USA)[41]. […]

[6] = cited from earlier work

For CC[C@H](C)[C@@H]1NC(=O)[C@H](Cc2ccc(O)cc2)NC(=O)[C@@H](N)CSSC[C@@H](C(=O)N2CCC[C@H]2C(=O)N[C@@H](CC(C)C)C(=O)NCC(N)=O)NC(=O)[C@H](CC(N)=O)NC(=O)[C@H](CCC(N)=O)NC1=O [oxytocin, Oxytocin], the “time of maximal oxytocin concentrations after peripheral administration” value [1] is listed as 10 to 60 min, the “CSF OT” value ([2]; KO (Ager-/-) mice, 60 min after sc oxytocin) is listed as 1.096% and 1.022% and 1.298% and 0.875% and 0.8155% and 0.9128% and 1.16% and 0.679% and 1.176% and 1.081% and 0.9794% and 0.8625% and the “CSF OT” value ([2]; KO+Tg mice, 60 min after sc oxytocin) is listed as 1.051% and 1.1275% and 0.9794% and 1.244% and 1.354% and 2.625%. The “CSF OT” value ([2]; WT+Tg (endothelial human RAGE) mice, 60 min after sc oxytocin) was 1.066% and 1.83% and 1.926% and 1.872%, the “CSF OT” value ([2]; female Ager-/- mice, 60 min after sc OT) was 110.13% and 105.01% and 103.76% and 85.23% and 99.81% and 68.15% and the “CSF OT” value ([2]; female WT mice, 60 min after sc OT) was 169.21% and 199.15% and 65.08% and 204.46% and 219.88% and 175.37% and 233.36% and 183.92% and 188.35%. The “oxytocin concentrations in the CSF of Ager-/- mice after injection” value ([2]; sc 30 ng/mouse, Ager-/- mice) was “remained at baseline levels”, the “time of maxima of oxytocin in CSF from the cisterna magna” value ([2]; sc 30 ng/mouse, WT mice) was 1 to 2 h and the “time of return of CSF oxytocin to baseline” value ([2]; sc 30 ng/mouse, WT mice) was 4 h. For the same molecule, the “OT % in microperfusates of the amygdala” value ([3]; Ager-/- mice, 30 min) was 116% and 89% and 169% and 98% and 65% and 54% and 55% and 105% and 67% and 87% and 79%, the “OT % in microperfusates of the amygdala” value ([3]; Ager-/- mice, 60 min) was 66% and 55% and 85% and 123% and 83% and 92% and 78% and 84% and 76% and 112% and 77% and 93% and 79% and the “OT % in microperfusates of the amygdala” value ([3]; Ager-/- mice, 90 min) was 137% and 158% and 73% and 162% and 90% and 65% and 76% and 99% and 129% and 131% and 83% and 110% and 163%. The “OT % in microperfusates of the amygdala” value ([3]; WT mice, 30 min) was 211% and 198% and 89% and 141% and 104% and 174%, the “OT % in microperfusates of the amygdala” value ([3]; WT mice, 60 min) was 190% and 195% and 144% and 170% and 93% and 133% and the “OT % in microperfusates of the amygdala” value ([3]; WT mice, 90 min) was 204% and 156% and 78% and 216% and 359% and 124%. The Tmax ([4]; plasma, sc 30 ng/mouse (approximately 1.1 μg/kg)) was no more than 10 min, the “time of return of blood oxytocin to baseline” value ([4]; sc 30 ng/mouse) was 1 to 2 h and the “OT in lower (abluminal, brain) chamber” value ([5]; 1 ng/ml added to luminal chamber, control vector (C)) was 10 pg/mL and 13 pg/mL and 13.5 pg/mL and 11.5 pg/mL and 22.2 pg/mL. The “OT in lower (abluminal, brain) chamber” value ([5]; 1 ng/ml luminal, RAGE shRNA knockdown (KD)) was 5 pg/mL and 4.2 pg/mL and 2 pg/mL and 8 pg/mL, the “OT in lower (abluminal, brain) chamber” value ([5]; 10 ng/ml luminal, RAGE KD) was 8 pg/mL and 8.5 pg/mL and 9 pg/mL and 5 pg/mL and the “OT in lower (abluminal, brain) chamber” value ([5]; 10 ng/ml luminal, control vector (C)) was 21 pg/mL and 28 pg/mL and 15.5 pg/mL and 24 pg/mL and 27 pg/mL. For the same molecule, the “OT in luminal chamber” value ([5]; 1 ng/ml abluminal, RAGE KD) was 0.32 pg/mL and 0.34 pg/mL and 0.36 pg/mL, the “OT in luminal chamber” value ([5]; 1 ng/ml added to abluminal chamber, control (C)) was 0.84 pg/mL and 1.12 pg/mL and 0.62 pg/mL and the “OT in luminal chamber” value ([5]; 10 ng/ml abluminal, RAGE KD) was 2 pg/mL and 1.68 pg/mL and 0.8 pg/mL. The “OT in luminal chamber” value ([5]; 10 ng/ml abluminal, control (C)) was 4 pg/mL and 5.2 pg/mL and 5.4 pg/mL, the “apparent permeability constant (Papp)” value ([5]; head 1 ng/ml, RAGE KD, calculated from distribution ratios) was 1.263 x10^-6 and 1.061 x10^-6 and 0.505 x10^-6 and 2.02 x10^-6 and the “apparent permeability constant (Papp)” value ([5]; head 1 ng/ml, control (C), calculated from distribution ratios across chambers) was 2.525 x10^-6 and 3.283 x10^-6 and 3.409 x10^-6 and 2.904 x10^-6. The “apparent permeability constant (Papp)” value ([5]; head 10 ng/ml, RAGE KD, calculated from distribution ratios) was 0.076 x10^-6 and 0.098 x10^-6, the “share of peripherally applied oxytocin that reaches the CNS” value ([6]; 5 μg, 10 min after subcutaneous or intraperitoneal administration, rats) was “approximately 0.002%” and the bioavailability ([6]; LC/MS after administration of 500 μg oxytocin in rats) was “approximately 2%”. For the same molecule, the “share of oxytocin peptide accumulated on the BBB” value ([6]; intracarotid artery bolus of 125I- or 3H-labelled oxytocin, rats) was 1–2%.
